# Test results reported in paper PMC10733463, “Berberine-microbiota interplay: orchestrating gut health through modulation of the gut microbiota and metabolic transformation into bioactive metabolites” (Frontiers in Pharmacology, 2023).
# Tested on: caecal microbiota cultures
# Assay: 16S sequencing of total (DNA) and active (cDNA) community in caecal microbiota cultures, BBR vs Control
# Type: cell-based, broiler chicken
# Settings: 48 h
smiles,measurement,setting,value
"COc1ccc2cc3[n+](cc2c1OC)CCc1cc2c(cc1-3)OCO2 [Berberine, Berberine chloride]",L2FC BBRDNA vs ControlDNA,,0.44
same,L2FC BBRRNA vs BBRDNA,,3.40
same,L2FC BBRRNA vs ControlRNA,,1.34
same,L2FC BBRRNA vs ControlRNA,"OTU 40798 (Butyricicoccus), active (cDNA) community",0.45
same,L2FC BBRRNA vs BBRDNA,"OTU 40798 (Butyricicoccus), active vs total community in BBR group",-4.40
same,L2FC BBRDNA vs ControlDNA,"OTU 40798 (Butyricicoccus), total (DNA) community",0.83
same,L2FC BBRRNA vs ControlRNA,"OTU 109633 (Eubacterium), active (cDNA) community",1.92
same,L2FC BBRRNA vs BBRDNA,"OTU 109633 (Eubacterium), active vs total community in BBR group",-0.64
same,L2FC BBRDNA vs ControlDNA,"OTU 109633 (Eubacterium), total (DNA) community",1.75
same,L2FC BBRRNA vs ControlRNA,"OTU 129401 (Family_Ruminococcaceae), active (cDNA) community",1.00
same,L2FC BBRRNA vs BBRDNA,"OTU 129401 (Family_Ruminococcaceae), active vs total community in BBR group",1.99
same,L2FC BBRDNA vs ControlDNA,"OTU 129401 (Family_Ruminococcaceae), total (DNA) community",0.84
same,L2FC BBRRNA vs ControlRNA,"OTU 157573 (Alistipes), active (cDNA) community",-0.29
same,L2FC BBRRNA vs BBRDNA,"OTU 157573 (Alistipes), active vs total community in BBR group",1.91
same,L2FC BBRDNA vs ControlDNA,"OTU 157573 (Alistipes), total (DNA) community",0.19
same,L2FC BBRRNA vs ControlRNA,"OTU 157772 (uncultured Ruminococcaceae), active (cDNA) community",-0.27
same,L2FC BBRRNA vs BBRDNA,"OTU 157772 (uncultured Ruminococcaceae), active vs total community in BBR group",1.68
same,L2FC BBRDNA vs ControlDNA,"OTU 157772 (uncultured Ruminococcaceae), total (DNA) community",-0.36
same,L2FC BBRRNA vs ControlRNA,"OTU 180099 (uncultured Lachnospiraceae), active (cDNA) community",-0.96
same,L2FC BBRRNA vs BBRDNA,"OTU 180099 (uncultured Lachnospiraceae), active vs total community in BBR group",-0.59
same,L2FC BBRDNA vs ControlDNA,"OTU 180099 (uncultured Lachnospiraceae), total (DNA) community",-1.55
same,L2FC BBRRNA vs ControlRNA,"OTU 186881 (Anaerofilum), active (cDNA) community",-1.11
same,L2FC BBRRNA vs BBRDNA,"OTU 186881 (Anaerofilum), active vs total community in BBR group",-0.59
same,L2FC BBRDNA vs ControlDNA,"OTU 186881 (Anaerofilum), total (DNA) community",-1.53
same,L2FC BBRRNA vs ControlRNA,"OTU 193240 (Butyricicoccus), active (cDNA) community",-1.08
same,L2FC BBRRNA vs BBRDNA,"OTU 193240 (Butyricicoccus), active vs total community in BBR group",-1.42
same,L2FC BBRDNA vs ControlDNA,"OTU 193240 (Butyricicoccus), total (DNA) community",-1.34
same,L2FC BBRRNA vs ControlRNA,"OTU 196831 (Oscillibacter), active (cDNA) community",0.14
same,L2FC BBRRNA vs BBRDNA,"OTU 196831 (Oscillibacter), active vs total community in BBR group",2.09
same,L2FC BBRDNA vs ControlDNA,"OTU 196831 (Oscillibacter), total (DNA) community",0.24
same,L2FC BBRRNA vs ControlRNA,"OTU 199555 ([Ruminococcus] torques group), active (cDNA) community",-1.39
same,L2FC BBRRNA vs BBRDNA,"OTU 199555 ([Ruminococcus] torques group), active vs total community in BBR group",-0.15
same,L2FC BBRDNA vs ControlDNA,"OTU 199555 ([Ruminococcus] torques group), total (DNA) community",-1.72
same,L2FC BBRRNA vs ControlRNA,"OTU 233953 (Erysipelatoclostridium), active (cDNA) community",-1.85
same,L2FC BBRRNA vs BBRDNA,"OTU 233953 (Erysipelatoclostridium), active vs total community in BBR group",-0.21
same,L2FC BBRDNA vs ControlDNA,"OTU 233953 (Erysipelatoclostridium), total (DNA) community",-1.14
same,L2FC BBRRNA vs ControlRNA,"OTU 234912 (Ruminococcaceae UCG-013), active (cDNA) community",-2.52
same,L2FC BBRRNA vs BBRDNA,"OTU 234912 (Ruminococcaceae UCG-013), active vs total community in BBR group",-0.46
same,L2FC BBRDNA vs ControlDNA,"OTU 234912 (Ruminococcaceae UCG-013), total (DNA) community",-3.19
same,L2FC BBRRNA vs ControlRNA,"OTU 240271 (uncultured Ruminococcaceae), active (cDNA) community",0.20
same,L2FC BBRRNA vs BBRDNA,"OTU 240271 (uncultured Ruminococcaceae), active vs total community in BBR group",1.89
same,L2FC BBRDNA vs ControlDNA,"OTU 240271 (uncultured Ruminococcaceae), total (DNA) community",0.33
same,L2FC BBRRNA vs ControlRNA,"OTU 249142 ([Ruminococcus] torques group), active (cDNA) community",-3.17
same,L2FC BBRRNA vs BBRDNA,"OTU 249142 ([Ruminococcus] torques group), active vs total community in BBR group",-0.87
same,L2FC BBRDNA vs ControlDNA,"OTU 249142 ([Ruminococcus] torques group), total (DNA) community",-2.54
same,L2FC BBRRNA vs ControlRNA,"OTU 293975 (uncultured Lachnospiraceae), active (cDNA) community",-2.01
same,L2FC BBRRNA vs BBRDNA,"OTU 293975 (uncultured Lachnospiraceae), active vs total community in BBR group",0.18
same,L2FC BBRDNA vs ControlDNA,"OTU 293975 (uncultured Lachnospiraceae), total (DNA) community",-1.62
same,L2FC BBRRNA vs ControlRNA,"OTU 294545 (Ruminiclostridium), active (cDNA) community",-0.23
same,L2FC BBRRNA vs BBRDNA,"OTU 294545 (Ruminiclostridium), active vs total community in BBR group",1.73
same,L2FC BBRDNA vs ControlDNA,"OTU 294545 (Ruminiclostridium), total (DNA) community",0.21
same,L2FC BBRRNA vs ControlRNA,"OTU 308157 (Butyricicoccus), active (cDNA) community",0.37
same,L2FC BBRRNA vs BBRDNA,"OTU 308157 (Butyricicoccus), active vs total community in BBR group",-1.55
same,L2FC BBRDNA vs ControlDNA,"OTU 308157 (Butyricicoccus), total (DNA) community",0.47
same,L2FC BBRRNA vs ControlRNA,"OTU 315223 (Anaerotruncus), active (cDNA) community",0.81
same,L2FC BBRRNA vs BBRDNA,"OTU 315223 (Anaerotruncus), active vs total community in BBR group",2.28
same,L2FC BBRDNA vs ControlDNA,"OTU 315223 (Anaerotruncus), total (DNA) community",0.02
same,L2FC BBRRNA vs ControlRNA,"OTU 349246 (Ruminiclostridium 9), active (cDNA) community",-1.09
same,L2FC BBRRNA vs BBRDNA,"OTU 349246 (Ruminiclostridium 9), active vs total community in BBR group",1.04
same,L2FC BBRDNA vs ControlDNA,"OTU 349246 (Ruminiclostridium 9), total (DNA) community",-0.39
same,L2FC BBRRNA vs ControlRNA,"OTU 350256 (Intestinimonas), active (cDNA) community",-0.58
same,L2FC BBRRNA vs BBRDNA,"OTU 350256 (Intestinimonas), active vs total community in BBR group",1.65
same,L2FC BBRDNA vs ControlDNA,"OTU 350256 (Intestinimonas), total (DNA) community",-0.23
same,L2FC BBRRNA vs ControlRNA,"OTU 356073 ([Eubacterium] xylanophilum group), active (cDNA) community",-1.98
same,L2FC BBRRNA vs BBRDNA,"OTU 356073 ([Eubacterium] xylanophilum group), active vs total community in BBR group",-1.05
same,L2FC BBRDNA vs ControlDNA,"OTU 356073 ([Eubacterium] xylanophilum group), total (DNA) community",-1.79
same,L2FC BBRRNA vs ControlRNA,"OTU 362793 (Oscillibacter), active (cDNA) community",0.13
same,L2FC BBRRNA vs BBRDNA,"OTU 362793 (Oscillibacter), active vs total community in BBR group",2.11
same,L2FC BBRDNA vs ControlDNA,"OTU 362793 (Oscillibacter), total (DNA) community",0.33
same,L2FC BBRRNA vs ControlRNA,"OTU 364341 (Family_Ruminococcaceae), active (cDNA) community",0.25
same,L2FC BBRRNA vs BBRDNA,"OTU 364341 (Family_Ruminococcaceae), active vs total community in BBR group",1.56
same,L2FC BBRDNA vs ControlDNA,"OTU 364341 (Family_Ruminococcaceae), total (DNA) community",0.20
same,L2FC BBRRNA vs ControlRNA,"OTU 368615 (uncultured Lachnospiraceae), active (cDNA) community",-0.96
same,L2FC BBRRNA vs BBRDNA,"OTU 368615 (uncultured Lachnospiraceae), active vs total community in BBR group",-1.57
same,L2FC BBRDNA vs ControlDNA,"OTU 368615 (uncultured Lachnospiraceae), total (DNA) community",-0.96
same,L2FC BBRRNA vs ControlRNA,"OTU 408513 (Ruminiclostridium 9), active (cDNA) community",-3.12
same,L2FC BBRRNA vs BBRDNA,"OTU 408513 (Ruminiclostridium 9), active vs total community in BBR group",1.43
same,L2FC BBRDNA vs ControlDNA,"OTU 408513 (Ruminiclostridium 9), total (DNA) community",-2.29
same,L2FC BBRRNA vs ControlRNA,"OTU 443620 (uncultured Ruminococcaceae), active (cDNA) community",-0.74
same,L2FC BBRRNA vs BBRDNA,"OTU 443620 (uncultured Ruminococcaceae), active vs total community in BBR group",0.61
same,L2FC BBRDNA vs ControlDNA,"OTU 443620 (uncultured Ruminococcaceae), total (DNA) community",0.83
same,L2FC BBRRNA vs ControlRNA,"OTU 461487 (Ruminococcaceae UCG-014), active (cDNA) community",-0.55
same,L2FC BBRRNA vs BBRDNA,"OTU 461487 (Ruminococcaceae UCG-014), active vs total community in BBR group",-3.30
same,L2FC BBRDNA vs ControlDNA,"OTU 461487 (Ruminococcaceae UCG-014), total (DNA) community",-0.15
same,L2FC BBRRNA vs ControlRNA,"OTU 510295 (Fournierella), active (cDNA) community",0.35
same,L2FC BBRRNA vs BBRDNA,"OTU 510295 (Fournierella), active vs total community in BBR group",-2.43
same,L2FC BBRDNA vs ControlDNA,"OTU 510295 (Fournierella), total (DNA) community",0.86
same,L2FC BBRRNA vs ControlRNA,"OTU 519763 (Intestinimonas), active (cDNA) community",1.22
same,L2FC BBRRNA vs BBRDNA,"OTU 519763 (Intestinimonas), active vs total community in BBR group",2.52
same,L2FC BBRDNA vs ControlDNA,"OTU 519763 (Intestinimonas), total (DNA) community",1.10
